The record followed here is paper PMC12406685, “Thiazole substitution of a labile amide bond—a new option toward antiplasmodial pantothenamide-mimics” (Antimicrobial Agents and Chemotherapy, 2025).

For data set [1], the target named is PfPanK (Plasmodium falciparum, UniProt Q8IL92+Q8ILP4). The data set can be described thus: [14C]pantothenate phosphorylation assay in P. falciparum lysates (Somogyi reagent). The format is biochemical. As to conditions: for inhibition at 2 µM: read-out: Inhibition of pantothenate phosphorylation. How it is done: Parasite lysates were prepared from saponin-isolated mature trophozoite-stage parasites as described by Saliba et al. ([14]), with modifications. Briefly, a culture with predominantly trophozoite stage parasites was thoroughly mixed with saponin (0.05% [wt/vol] final concentration) and centrifuged at 2,000 × g for 8 min at 4°C. The pelleted parasites were then transferred to a 1.5 mL tube and washed three times (16,000 × g, 1 min each time) with cold malaria saline (125 mM NaCl, 5 mM KCl, 25 mM HEPES, 20 mM glucose, 1 mM MgCl2, pH 7.1). Subsequently, washed saponin-isolated parasites were suspended in 1 mL of 10 mM Tris/Cl, pH 7.4, followed by trituration (10 times) through a SafetyGlide injection needle (25-gauge). The lysates were then centrifuged at 16,000 × g for 30 min at 4°C, and the supernatant was transferred to a new tube. The concentration of the lysates was then determined using the Bradford reagent.
PfPanK, sequence (Q8ILP4 entry or part of it): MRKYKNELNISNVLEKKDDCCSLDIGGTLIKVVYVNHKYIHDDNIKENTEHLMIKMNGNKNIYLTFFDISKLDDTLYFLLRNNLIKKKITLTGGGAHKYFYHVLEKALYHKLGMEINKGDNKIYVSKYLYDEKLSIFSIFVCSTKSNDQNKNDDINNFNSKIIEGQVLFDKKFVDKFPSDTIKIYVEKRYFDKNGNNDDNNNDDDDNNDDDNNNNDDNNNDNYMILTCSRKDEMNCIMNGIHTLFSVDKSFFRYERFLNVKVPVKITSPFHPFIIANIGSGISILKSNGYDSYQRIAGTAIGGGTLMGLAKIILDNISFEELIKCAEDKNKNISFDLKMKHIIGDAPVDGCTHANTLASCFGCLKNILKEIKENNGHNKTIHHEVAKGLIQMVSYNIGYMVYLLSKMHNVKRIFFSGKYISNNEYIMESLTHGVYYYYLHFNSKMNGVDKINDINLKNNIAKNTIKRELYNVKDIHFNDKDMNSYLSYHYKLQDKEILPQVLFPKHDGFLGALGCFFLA
PfPanK, sequence (Q8IL92 entry or part of it): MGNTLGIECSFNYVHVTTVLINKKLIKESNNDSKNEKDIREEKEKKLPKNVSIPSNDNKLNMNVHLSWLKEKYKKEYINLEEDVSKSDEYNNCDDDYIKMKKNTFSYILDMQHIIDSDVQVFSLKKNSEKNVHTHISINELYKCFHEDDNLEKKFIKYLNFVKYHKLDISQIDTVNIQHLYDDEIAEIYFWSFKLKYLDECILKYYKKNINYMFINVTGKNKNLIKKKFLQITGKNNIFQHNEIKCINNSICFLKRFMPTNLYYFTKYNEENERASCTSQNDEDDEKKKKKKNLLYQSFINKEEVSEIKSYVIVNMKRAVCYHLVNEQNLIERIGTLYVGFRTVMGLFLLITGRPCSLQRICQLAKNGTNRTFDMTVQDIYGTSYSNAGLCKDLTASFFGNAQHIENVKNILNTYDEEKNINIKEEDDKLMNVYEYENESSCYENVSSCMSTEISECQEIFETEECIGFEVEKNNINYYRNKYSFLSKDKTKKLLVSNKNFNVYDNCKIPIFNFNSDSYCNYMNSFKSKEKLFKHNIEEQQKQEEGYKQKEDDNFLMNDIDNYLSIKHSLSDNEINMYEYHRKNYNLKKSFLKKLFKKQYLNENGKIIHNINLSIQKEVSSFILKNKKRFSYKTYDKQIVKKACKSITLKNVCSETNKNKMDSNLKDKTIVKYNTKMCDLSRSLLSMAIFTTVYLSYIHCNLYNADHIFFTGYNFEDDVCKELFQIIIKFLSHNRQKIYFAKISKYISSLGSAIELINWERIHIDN
Phosphorylation of [^14C]pantothenate was determined using a combination of zinc sulphate (ZnSO4) and barium hydroxide (Ba(OH)2) (Somogyi reagent) as previously described ([78]). In the 125 min time course, each reaction (650 µL) contained a final concentration of 50 mM Tris-Cl (pH 7.4), 5 mM ATP, 5 mM MgCl2, 2 µM (0.1 µCi/mL) [^14C]pantothenate, and 60 µg of total parasite lysate. The compounds were added at their 10× antiplasmodial IC50 values or at various concentrations to generate dose–response curves. Mixtures were incubated at 37°C throughout the experiment, and reactions were initiated by the addition of the lysates. A reaction with identical components to the test reactions but lacking the parasite lysate was prepared to serve as a no-phosphorylation negative control, and a reaction with DMSO vehicle control (0.2% vol/vol) served as a positive control. At pre-determined time points, 50 µL of the reaction mixture was transferred in triplicate to wells of a 96-well filter plate with 0.2 µm hydrophilic polyvinylidene fluoride (PVDF) membrane filter (Corning), which had been pre-loaded with 50 µL of 150 mM Ba(OH)2. The reaction mixtures were thoroughly mixed with the Ba(OH)2 in the wells to precipitate the enzyme and terminate the phosphorylation reaction. After all reactions had been terminated, phosphorylated compounds in each well were precipitated by the addition of 50 µL of 150 mM ZnSO4 to generate the Somogyi reagent. The plate was then washed twice with deionized H2O and once with 95% (vol/vol) ethanol using a vacuum manifold to remove the non-phosphorylated [^14C]pantothenate and was subsequently dried overnight at 37°C in a non-humidified incubator. The following day, 30 µL of Microscint-O (PerkinElmer) was added to each well, and the plate was sealed on the top and bottom with TopSeal-A Plus sealing film (PerkinElmer). A Packard Microplate Scintillation and Luminescence Counter was used to measure the radioactivity in each well immediately after the plate had been sealed. To determine the total radioactivity in each phosphorylation assay, 50 µL of each reaction mixture was added to the wells of an OptiPlate-96 microplate (PerkinElmer) in triplicate and was then thoroughly mixed with 150 µL of Microscint-40 (PerkinElmer), and the radioactivity was measured in the same manner. Phosphorylation of [^14C]pantothenate, calculated as a percentage of the radioactivity measured in the test wells relative to the total radioactivity in the phosphorylation assay, was then plotted against the reaction time. Each data set was analyzed by linear regression, from which the phosphorylation rate of each reaction was then determined and expressed as a percentage of the phosphorylation rate of the DMSO-positive control reaction.

The test system of data set [2] is human hepatoblastoma cells (HepG2). The data set can be described thus: In vitro HepG2 proliferation assay (Incucyte confluency). The data set is classed as cell-based. As to conditions: for Proliferation (%) of HepG2 with 200 µM Cpd and 1 µM Pan: 200 µM compound, 72 h, mean ± range/2 of two experiments; for Proliferation (%) of HepG2 with 200 µM Cpd and 1 µM Pan / Effect on HepG2 cells, in words: RPMI-1640 with 1 µM pantothenate. How it is done: (§1) HFF cells were maintained in vitro in DMEM supplemented with 10% (vol/vol) newborn calf serum, 50 units/mL penicillin, 50 µg/mL streptomycin, 10 µg/mL gentamicin, 0.2 mM L-glutamine, and 0.25 µg/mL amphotericin B, as previously described ([99]). HepG2 cells were maintained in RPMI-1640 medium (Thermo Fisher Scientific, catalogue number 72400120) supplemented with 10% (vol/vol) fetal bovine serum, 50 units/mL penicillin, and 50 µg/mL streptomycin.
In vitro HepG2 proliferation assays were performed similarly to the HFF proliferation assays with modifications. Confluent HepG2 cells were harvested by treatment with 1 × trypsin–EDTA and diluted in RPMI-1640 supplemented with 10% (vol/vol) fetal bovine serum. Assays were set up in 96-well microtiter plates with 20,000 cells per well. Puromycin (10 µM) was used as a non-proliferation control, and 0.1% (vol/vol) DMSO served as a 100% proliferation control. The plates were incubated at 37°C in a CO2 incubator for 72 h, and the Incucyte Live-Cell Analysis System (Essen BioScience) was used to capture cellular changes and assess cell growth in each well over time as described above for the HFF proliferation assays. The bottom of the curve was constrained to 0 when fitting for HepG2 proliferation assays using GraphPad Prism.

Data set [3] has as its system human foreskin fibroblasts (HFF). Description: In vitro HFF proliferation assay (Incucyte confluency). The data set is classed as cell-based. As to conditions: 200 µM compound, DMEM with 16.8 µM pantothenate, 96 h; mean ± range/2 of two experiments. How it is done: as §1
In vitro HFF proliferation assays were performed as previously described by Howieson et al. ([32]), with modifications. Confluent HFF cells (in a 75 cm^2 flask) were harvested by treatment with 1 × trypsin–EDTA (0.25% [wt/vol] trypsin +0.2 g/L EDTA) and diluted in 21 mL of DMEM supplemented with 10% [vol/vol] newborn calf serum ([32]). Assays were set up in 96-well microtiter plates in a similar way to that described for the antiplasmodial activity assay. Cycloheximide (10 µM) was used as a non-proliferation control, and 0.1% (vol/vol) DMSO served as a 100% proliferation control. The plates were incubated at 37°C in a CO2 incubator for 96 h, and the Incucyte Live-Cell Analysis System (Essen BioScience) was used to capture cellular changes and assess cell growth in each well over time. Each well was scanned to capture bright field images, and confluency was assessed at the end of the 96 h incubation, which was then used to evaluate the effect of each compound on the proliferation of HFF cells by comparing it to the 100% proliferation control. The bottom of the curve was constrained to 0 when fitting for HFF proliferation assays using GraphPad Prism.

Regarding `CC(C)(CO)[C@@H](O)C(=O)NCc1cnc(-c2ccccc2)s1` [Compound 3f], in data set [1], the inhibition at 2 µM is greater than 90%. Further, in data set [2], the “Proliferation (%) of HepG2 with 200 µM Cpd and 1 µM Pan” value (“Proliferation (%) of HepG2” for short) is 89 ± 2%. For the same compound, the “Effect on HepG2 cells, in words” value in data set [2] (200 µM) is “completely inactive”. Besides, the “Proliferation (%) of HFF with 200 µM Cpd and 16.8 µM Pan” value (shortened to “Proliferation (%) of HFF”) in data set [3] is listed as 100 ± 1%.

Regarding `CC(C)(CO)[C@@H](O)C(=O)NCc1csc(Cc2ccccc2)n1` [Compound 2c], in data set [1], the inhibition at 2 µM was greater than 90%. In data set [2], the “Proliferation (%) of HepG2” value is 93 ± 2%. The “Effect on HepG2 cells, in words” value in data set [2] (200 µM) was “completely inactive”. In data set [3], the “Proliferation (%) of HFF” value turned out to be 101 ± 2%.

In the case of `CC(C)(CO)[C@@H](O)C(=O)NCc1nc(CCc2ccccc2)cs1` [Compound 1e], in data set [1], the inhibition at 2 µM was greater than 90%. Besides, in data set [2], the “Proliferation (%) of HepG2” value is on record as 55 ± 1%. Further, the “Effect on HepG2 cells, in words” value in data set [2] (200 µM) was “some low-level toxicity”. In data set [2] (Homo sapiens, HepG2, 200 µM), the inhibition at 200 µM is roughly 50%. For the same compound, in data set [3], the “Proliferation (%) of HFF” value came to 101 ± 2%.

As for `CCCCCc1csc(CNC(=O)[C@H](O)C(C)(C)CO)n1` [Compound 1c], the inhibition at 2 µM in data set [1] was greater than 90%. For the same compound, the “Proliferation (%) of HepG2” value in data set [2] was 62 ± 7%. Moreover, the “Effect on HepG2 cells, in words” value in data set [2] (200 µM) was “some low-level toxicity”. Further, the “Proliferation (%) of HFF” value in data set [3] is 97 ± 4%.

As to `CC(C)(CO)[C@@H](O)C(=O)NCc1csc(-c2ccccc2)n1` [Compound 2e], in data set [1], the inhibition at 2 µM was roughly 80%. Further, the “Fold by which IC50 at inhibiting pantothenate phosphorylation is higher than Km for pantothenate of PfPanK” value in data set [1] (relative to reported Km 270 ± 95 nM) is “approximately 2.1 fold”. For the same compound, the “Proliferation (%) of HepG2” value in data set [2] was determined as 91 ± 4%. In addition, the “Effect on HepG2 cells, in words” value in data set [2] (200 µM) is “completely inactive”. The “Proliferation (%) of HFF” value in data set [3] was determined as 100 ± 1%.

In the case of `CCCCc1csc(CNC(=O)[C@H](O)C(C)(C)CO)n1` [Compound 1a], in data set [1], the inhibition at 2 µM was greater than 90%. Moreover, in data set [2], the “Proliferation (%) of HepG2” value worked out at 71 ± 11%. Moreover, the “Effect on HepG2 cells, in words” value in data set [2] (200 µM) is listed as “some low-level toxicity”. Besides, the “Proliferation (%) of HFF” value in data set [3] was determined as 100 ± 1%.
